These results are taken from ChEMBL document CHEMBL5137120, “Modified ent-Abietane Diterpenoids from the Leaves of Suregada zanzibariensis” (J Nat Prod, 2022).

A short description of series [1]: Cytotoxicity against African green monkey GMK-AH-1 cell assessed as cell growth inhibition at >=100 uM incubated for 3 days by CellTiter96 Aqueous one reagent based assay. The format is toxicity. The note with it: chlorocebus aethiops, gmk-ah-1, 72 h, time 3 day.
Series [2] is described as follows: Cytotoxicity against human THP-1 cells assessed as cell growth inhibition incubated for 24 hrs by MTT assay. The format is toxicity, cell-based. Background: Formazan colour is commonly taken as a measure of viable cells.

The IC50 is the midpoint of a concentration-inhibition curve.

As to `C=C1[C@@H](C)CC(=O)[C@@]2(C)[C@@H]3C[C@H]4OC(=O)C(C)=C4C=C3CC[C@]12O`, the Activity result in series [1] is given as “Non-Toxic”.

For the compound `CC(C)[C@H]1CC[C@@H]2[C@]1(C)CC[C@]1(C)[C@H]3CC=C4[C@@H](CC[C@H](O)C4(C)C)[C@]3(C)CC[C@@]21C`, the IC50 at 24 h in series [2] worked out at 1780 nM. The Activity entry in series [1] was “Non-Toxic”.

Consider `C=C1[C@@H](C)CC(=O)[C@@]2(C)[C@@H]3C[C@H]4OC(=O)C(C)=C4[C@H]4O[C@]43CC[C@]12O`, for which the Activity entry in series [1] was “Non-Toxic”.
